Measurements from PubChem BioAssay AID2060512 (Molecular Pharmacology Branch, DTP, NCI, 2025).

Tested on: 186277-243-T-J2-PDC complex spheroid viability
Test: Anticancer human tumor 186277-243-T-J2-PDC patient-derived colon adenocarcinoma cell line growth inhibition [GQUAD]
Conditions: for IC50: curve of first compound; for viability, T/C: stronger effect = lower value
Description: DNA G-quadruplex Stabilizer Agents in Combinations in Complex Spheroids
A high-throughput screen of multi-cell type tumor spheroids was designed to identify active combinations of DNA G-quadruplex stabilizer agents and targeted small molecules. Complex spheroids include a stromal component modeled by human endothelial cells (HUVEC) and fibroblasts modeled by human mesenchymal stem cells (MSCs). The concentration ranges selected for each drug and investigational agent were based upon clinically achievable concentrations if the clinical Cmax of the agent was known.
Compounds. The drugs and investigational agents: pidnarulex (CX-5461; NSC782164), APTO-253 (NSC789042), BRACO-19 (NSC847499), peposertib (NSC802822), ceralasertib (NSC780249), elimusertib (NSC800525), camonsertib (NSC841442), AZD-1390 (NSC803789), olaparib (NSC753686), talazoparib (NSC767125), ART-558 (NSC835418), sotorasib (NSC818433), MRTX-1133 (NSC836407), SN-38 (NSC673596), topotecan (NSC609699), etoposide (NSC141540), doxorubicin (NSC123127), gemcitabine (NSC613327), 5-fluorouracil (NSC19893), paclitaxel (NSC125973), vemurafenib (NSC761431), panobinostat (NSC761190), R-306465 (JNJ-16241199; NSC773264), adavosertib (NSC754352), TP-3654 (NSC805149), carboplatin (NSC241240), KSQ-4279 (NSC840948), and staurosporine (NSC755774) were obtained from the National Cancer Institute (NCI) Developmental Therapeutics Program Chemical Repository (34). The FDA-approved anticancer drug set is available from the NCI Developmental Therapeutics Program. […] The stock solutions were prepared in dimethyl sulfoxide (DMSO, Sigma-Aldrich, St. Louis, MO, cat. D2650) at 800-fold the tested concentration and stored at -70 degrees C prior to their use. All drugs and investigational agents were tested over a range starting from a high concentration at or near the clinical Cmax and decreasing in half-log increments. If the clinical Cmax for an agent had not been determined, the highest concentration tested was 10 microM.
2.3 Cell Culture. All cells were maintained in an incubator at 37 degrees C and 5% CO2 with 95% humidity. The PDC lines were cultured according to standard operating procedures established by the NCI PDMR. All PDCs were thawed and cultured in Matrigel-coated flasks prepared with a working solution of 1X Ham's F-12 nutrient mix, without supplementation (Invitrogen, cat. 11765054), 100 U/mL penicillin-streptomycin (Invitrogen, cat. 15140122), and 2.5% Matrigel (Corning Inc., cat. 354248) for the first three passages. The 857933-349-R-J2-PDC line was cultured in 6C/Colon 1B media, which includes advanced DMEM/F-12 (Thermo Fisher Scientific, cat. 12634028), 10 mM HEPES (Thermo Fisher Scientific, cat. 15630080), 1X GlutaMAX supplement (Thermo Fisher Scientific, cat. 35050061), 0.1 mg/mL primocin (InvivoGen, cat. ant-pm-2), 10% defined fetal bovine serum, heat inactivated (HyClone Laboratories Inc., cat. SH30070.03HI), 50% L-WRN conditioned media (ATCC, cat. CRL-3276), 1.25 mM N-Acetyl-L-cysteine (Sigma-Aldrich, cat. A9165), 10 mM nicotinamide (Sigma-Aldrich, cat. N0636), 1X B-27 supplement (Thermo Fisher Scientific, cat. 17504044), 1X N-2 supplement (Thermo Fisher Scientific, cat. 17502048), 10 microM Y-27632 dihydrochloride (Tocris Bioscience, cat. 1254), and 50 ng/mL human EGF recombinant protein (Thermo Fisher Scientific, cat. PHG0311). The 485176-168-R4-J1-PDC line was cultured in Panc media, which includes all 6C/Colon 1B media components plus 100 ng/mL human FGF-10 (Thermo Fisher Scientific, cat. 100-26), 500 nM SB-431542 (Selleckchem, cat. S1067), and gastrin (Tocris, cat. 3006).
[…]
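Note: spheroids exposed to drugs for 7 days.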
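Throughout, for viability, T/C: 100% = DMSO vehicle control viability.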

With `C=CC(=O)N1CCN(c2nc(=O)n(-c3c(C)ccnc3C(C)C)c3nc(-c4c(O)cccc4F)c(F)cc23)C(C)C1` (configuration not stated) + Cc1[nH]c2ccc(F)cc2c1-c1nc2c3cccnc3c3ncccc3c2[nH]1 the IC50 (second compound 0.0316 µM) was > 10 µM, the IC50 (second compound 0.1 µM) was > 10 µM and the IC50 (second compound 0.316 µM) was > 10 µM. The IC50 (second compound 1 µM) was > 10 µM, the IC50 (second compound 3.16 µM) was > 10 µM and the IC50 (second compound 10 µM) was > 10 µM. The viability, T/C (second compound 0.0316 µM, first compound 0.0316 µM) was 92.4%, the viability, T/C (second compound 0.0316 µM, first compound 0.1 µM) was 87.1% and the viability, T/C (second compound 0.0316 µM, first compound 0.316 µM) was 92.5%. For the same molecule, the viability, T/C (second compound 0.0316 µM, first compound 1 µM) was 85.2%, the viability, T/C (second compound 0.0316 µM, first compound 3.16 µM) was 107% and the viability, T/C (second compound 0.0316 µM, first compound 10 µM) was 94.9%. For the same molecule, the viability, T/C (second compound 0.1 µM, first compound 0.0316 µM) was 95.7%, the viability, T/C (second compound 0.1 µM, first compound 0.1 µM) was 97% and the viability, T/C (second compound 0.1 µM, first compound 0.316 µM) was 101%. It also gave a viability, T/C (second compound 0.1 µM, first compound 1 µM) of 78.5%, a viability, T/C (second compound 0.1 µM, first compound 3.16 µM) of 113% and a viability, T/C (second compound 0.1 µM, first compound 10 µM) of 92.8%. The viability, T/C (second compound 0.316 µM, first compound 0.0316 µM) was 98.9%, the viability, T/C (second compound 0.316 µM, first compound 0.1 µM) was 110% and the viability, T/C (second compound 0.316 µM, first compound 0.316 µM) was 89.3%. The viability, T/C (second compound 0.316 µM, first compound 1 µM) was 91.3%, the viability, T/C (second compound 0.316 µM, first compound 3.16 µM) was 97.2% and the viability, T/C (second compound 0.316 µM, first compound 10 µM) was 88.7%. It also gave a viability, T/C (second compound 1 µM, first compound 0.0316 µM) of 98.1%, a viability, T/C (second compound 1 µM, first compound 0.1 µM) of 88.4% and a viability, T/C (second compound 1 µM, first compound 0.316 µM) of 107%. For the same molecule, the viability, T/C (second compound 1 µM, first compound 1 µM) was 87.6%, the viability, T/C (second compound 1 µM, first compound 3.16 µM) was 111% and the viability, T/C (second compound 1 µM, first compound 10 µM) was 96.3%. The viability, T/C (second compound 3.16 µM, first compound 0.0316 µM) was 84%, the viability, T/C (second compound 3.16 µM, first compound 0.1 µM) was 96.2% and the viability, T/C (second compound 3.16 µM, first compound 0.316 µM) was 92%. The viability, T/C (second compound 3.16 µM, first compound 1 µM) was 96%, the viability, T/C (second compound 3.16 µM, first compound 3.16 µM) was 108% and the viability, T/C (second compound 3.16 µM, first compound 10 µM) was 96%. It also gave a viability, T/C (second compound 10 µM, first compound 0.0316 µM) of 94%, a viability, T/C (second compound 10 µM, first compound 0.1 µM) of 99.7% and a viability, T/C (second compound 10 µM, first compound 0.316 µM) of 99.1%. For the same molecule, the viability, T/C (second compound 10 µM, first compound 1 µM) was 109%, the viability, T/C (second compound 10 µM, first compound 3.16 µM) was 102% and the viability, T/C (second compound 10 µM, first compound 10 µM) was 80.8%.
